Reference: patent publication US10383872B2, “Pharmaceutical compositions comprising phenylaminopyrimidine derivative” (priority 2015, dated 2019)
≈ marks a conversion by molar mass, not a printed value.

Key:
[1] = Solubility of NRC-AN-019 (aqueous at physiological pH; organic solvents); assay type: physicochemical
From the text: Its molecular formula is C25H17F6N5O and its relative molecular mass is 517.44.
It is soluble in dimethylformamide, dimethylacetamide and dimethyl sulfoxide. NRC-AN-019 presents specific difficulties in relation to solubility and its formulation development. Oral absorption of such insoluble drugs is the key point to be considered in solving the problem of low bioavailability.

[2] = Oral gavage pharmacokinetics (suspension) in albino wistar rats; details: rat, in vivo, oral gavage 40 mg/kg·bw
From the text: FIG. 1 illustrates the area under the curve in albino wistar rats after oral administration of NRC-AN-019 “as is” and different solid dispersions in accordance with the invention.
The study discloses better bioavailability characteristics of NRC-AN-019 in the formulation of the present invention than NRC-AN-019 as such. Thus, the optimum bioavailability can be achieved for the therapeutic effectiveness of NRC-AN-019. The maximum concentration and AUC of the formulation of the present invention are substantially higher than that of NRC-AN-019 “as is” due to better absorption characteristics of the solid dispersion of NRC-AN-019 in amorphous or, partially amorphous or, crystalline form. The details of the process of the invention are provided in the examples given below which is provided by way of illustration only and therefore should not be construed to limit the scope of the invention. The preparation of the present invention that can be administered by the oral route is carried out according to the following process.
NRC-AN-019 active pharmaceutical ingredient (API) and the compositions of the present invention were administered through oral gavage at 40 mg/kg·bw in the form of a suspension in albino wistar rats. […] The Cmax and AUC0-∞ for the compositions of the present invention vary between 900 ng/mL to 2000 ng/mL and 7500 ng·hr/mL to 16000 ng·hr/mL respectively.

solubility ([1]; aqueous medium at pH 1.2 (buffer not named), pH 1.2, simulated gastric fluid): 6.6 µg/mL (≈ 12.8 µM) | solubility ([1]; aqueous medium at pH 2.0 (buffer not named), pH 2, simulated gastric fluid): 0.2 µg/mL (≈ 0.387 µM) | solubility in organic solvents ([1]; dimethylformamide, dimethylacetamide and dimethyl sulfoxide): soluble | aqueous solubility ([1]; pH 3.0, 4.0, 5.0, 6.0, 6.8, 7.0, 7.5, 8.0 and water): below detection limit | solubility in water ([1]; water): practically insoluble | Cmax [2]: 33.7 ng/mL | AUC(0-inf) ([2]; read-out: average AUC0-∞): 453 ng·h/mL
SMILES: Cc1ccc(NC(=O)c2cc(C(F)(F)F)cc(C(F)(F)F)c2)cc1Nc1nccc(-c2cccnc2)n1 [NRC-AN-019, (3,5-Bis trifluoromethyl)-N-[4-methyl-3-(4-pyridin-3-yl-pyrimidin-2-yl-amino)phenyl]benzamide]
